In patent publication US20230364109A1, “GANAXOLONE FOR USE IN TREATMENT OF SUPER REFRACTORY STATUS EPILEPTICUS” (MARINUS PHARMACEUTICALS, INC., priority 2020, published 2023):

Assays:
[1] = system: super refractory status epilepticus; details: for response of SRSE to treatment given before GNX: same patient, before pentobarbitol coma or during it (ACTH)
progesterone receptor = molecular target: T1, progesterone receptor (Homo sapiens, UniProt P06401); experiment: activation of the progesterone receptor (hormonal activity); details: directly or via metabolic conversion
T1 sequence (P06401 1-933): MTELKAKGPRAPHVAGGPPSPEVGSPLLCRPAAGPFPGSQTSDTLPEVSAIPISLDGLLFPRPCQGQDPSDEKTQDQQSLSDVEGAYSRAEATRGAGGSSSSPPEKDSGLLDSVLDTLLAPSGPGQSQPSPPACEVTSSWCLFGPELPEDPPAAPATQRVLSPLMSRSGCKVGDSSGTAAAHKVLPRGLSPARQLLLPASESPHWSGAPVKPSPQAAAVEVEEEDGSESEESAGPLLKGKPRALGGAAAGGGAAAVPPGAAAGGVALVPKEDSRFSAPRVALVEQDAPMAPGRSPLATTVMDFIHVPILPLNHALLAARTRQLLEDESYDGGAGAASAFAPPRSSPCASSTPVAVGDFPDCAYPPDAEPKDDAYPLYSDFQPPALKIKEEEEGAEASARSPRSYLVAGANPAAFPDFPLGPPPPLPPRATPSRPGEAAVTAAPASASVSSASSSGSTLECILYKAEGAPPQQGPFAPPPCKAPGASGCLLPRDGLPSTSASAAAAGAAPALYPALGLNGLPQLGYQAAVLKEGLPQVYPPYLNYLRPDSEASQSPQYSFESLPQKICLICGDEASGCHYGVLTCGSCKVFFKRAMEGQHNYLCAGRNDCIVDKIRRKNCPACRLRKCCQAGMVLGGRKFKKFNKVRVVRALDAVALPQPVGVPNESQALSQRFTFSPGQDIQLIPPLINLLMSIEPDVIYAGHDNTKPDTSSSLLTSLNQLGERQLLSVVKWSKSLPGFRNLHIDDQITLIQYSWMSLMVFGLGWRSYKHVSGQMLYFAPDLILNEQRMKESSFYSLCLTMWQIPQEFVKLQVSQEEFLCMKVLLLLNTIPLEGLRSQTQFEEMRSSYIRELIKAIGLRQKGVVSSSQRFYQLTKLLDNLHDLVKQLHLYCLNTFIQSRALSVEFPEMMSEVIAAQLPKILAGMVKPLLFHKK
Text: Ganaxolone (3α-hydroxy-3β-methyl-5α-pregnan-20-one) is a 3β-methylated synthetic analogue of the endogenous neurosteroid allopregnanolone with similar biological activity (Carter et al., (1997), The Journal of Pharmacology and Experimental Therapeutics, 280:1284-1295), but it is designed to not activate nuclear (classical) progesterone receptors.

[2] = system: γ-aminobutyric acid type A (GABAA) receptors; details: Carter et al 1997; cited from earlier work
[3] = system: super refractory status epilepticus; experiment: Case Report 3: IV-to-enteric ganaxolone in a person with super refractory status epilepticus (FIRES); format: in vivo, human
Text: A previously healthy person presented with encephalopathy and fever and developed super refractory status epilepticus concordant with fever-induced refractory […] (FIRES). On administration, the patient presented in the emergency department (ED) with fever, abdominal pain, and encephalopathy. Patient was admitted to pediatric intensive care unit (PICU) and placed on video-electroencephalogram (vEEG). See, FIG. 4.
Immunomodulatory therapies with IV methylprednisolone and IVIG were initiated concomitantly.
After multiple ASMs, failed attempts to wean pentobarbital, and ketamine and midazolam infusions, they were treated under EIND approval for a trial of IV-to-enteric ganaxolone. Ganaxolone was administered on hospital day 17 using an IV bolus, followed by infusion over 6 days (with boluses as needed for breakthrough seizures) (FIG. 5). Midazolam was discontinued on day 2 of GNX IV protocol; ketamine was discontinued by day 8 with the assistance of phenobarbital loads and maintenance Anakinra was initiated on day 2 of GNX IV protocol (hospital day 19).

[4] = toxicology studies in animals focusing on prenatal and neonatal development; format: in vivo
Text: (§1) Ganaxolone has been administered to infants with severe forms of epilepsy as early as 4 months of age. In clinical trials involving administration of ganaxolone over several weeks, the study drug has been tapered off over a 1 to 2-week period.

SE = experiment: ganaxolone intravenous bolus plus continuous infusion in SE (inventors' earlier finding); format: in vivo; details: plasma concentration 500 ng/ml or higher for at least about 8 hours
Text: As described and exemplified herein, the inventors believe that ganaxolone holds promise as an effective therapy for SRSE. […] However, as discussed above, SRSE patients are an extremely ill subset of patients in which SE continues or recurs despite therapy with anesthetic agents (e.g., midazolam, propofol, ketamine, or barbiturate). […] When this occurs, the patient is typically then re-administered anesthetic agents at doses to cause burst suppression and to induce coma. As such, patients are typically weaned off anesthetics very slowly and typically by reducing anesthetics by no more than about 20% per day.

CYP3A⅘ = experiment: metabolism and interaction with strong CYP inducers (in vitro data and human PK data)
[5] = safety in the ganaxolone clinical development program; format: in vivo, human
Text: In the completed placebo-controlled Phase 1, 2, and 3 studies, 0.32% of subjects who received ganaxolone and 0.46% of subjects who received placebo developed elevated LFTs during the study (>3x ULN AST and/or ALT). A subject participating in the ganaxolone paediatric epilepsy study developed liver failure, which was not considered to be related to ganaxolone. The subject was diagnosed with short bowel syndrome, liver steatosis and IgG-cholangitis, which were considered to be the causal factors for the subject’s liver failure. There have been no other cases of Hy’s Law or liver failure in the ganaxolone development program. […] After cessation of the dosing, plasma ganaxolone levels are expected to drop rapidly, but it is possible that low sub-therapeutic levels persist for several days as ganaxolone is slowly released from tissues.
as §1

[6] = cited from earlier work
solubility of ganaxolone = format: physicochemical
Protocol: Ganaxolone is insoluble in water. […] Ganaxolone has a relatively long half-life - approximately 20 hours in human plasma following oral administration (Nohria, V. and Giller, E., Neurotherapeutics, (2007) 4(1): 102-105). Furthermore, ganaxolone has a short Tmax, which means that therapeutic blood levels are reached quickly.
Ganaxolone formulations suitable for parenteral administration in the methods of the present invention may comprise physiologically acceptable sterile aqueous or non-aqueous solutions, dispersions, suspensions or emulsions, and sterile powders for reconstitution into sterile injectable solutions or dispersions. Examples of suitable aqueous and non-aqueous carriers, diluents, solvents, or vehicles including water, ethanol, polyols (propylene glycol, polyethylene-glycol, glycerol, cremophor and the like), suitable mixtures thereof, vegetable oils (such as olive oil) and injectable organic esters such as ethyl oleate. Additionally, ganaxolone can be dissolved at concentrations of >1 mg/ml using water soluble beta cyclodextrins (e.g. beta-sulfobutyl-cyclodextrin and 2-hydroxypropylbetacyclodextrin). A particularly suitable cyclodextrin is a substituted-β-cyclodextrin is Captisol®. […]

status epilepticus = experiment: Case Report 1: IV to enteric GNX in a person with SE; format: in vivo, human
Text: FIGS. 3A-3C show video EEGs in the patient described in Example 2 on day 1 (FIG. 3A), day 2 (FIG. 3B), and day 5 (FIG. 3C). […] Double banana bipolar montage: LFF 1 Hz, HFF 70 Hz; sensitivity, 15 µV/mm; time base, 30 mm/s. EEG, electroencephalogram; HFF, high-frequency filter; LFF, low-frequency filter.
A person with a history of sporadic primarily febrile and rare afebrile convulsive seizures in early childhood had been seizure-free for 10 years off medication until they began to have focal seizures with generalization. Seizure semiology was characterized by eye fluttering with rapid bilateral involvement at times with leftward head/eye deviation as clusters prior to generalization. They had recurrent seizures over the first three weeks and was admitted to an outside hospital for SE requiring intubation. […] They were transferred to the inpatient pediatric rehabilitation unit after being seizure-free for one month on 5 antiseizure medications (cannabidiol, perampanel, phenobarbital, lacosamide, lorazepam), pyridoxine, ketogenic diet, anakinra, and menstrual suppression.
A thorough infectious, metabolic, genetic, vascular and autoimmune evaluation was non-diagnostic. While in the inpatient rehabilitation unit they developed a fever of 41.7° C. and respiratory viral panel was positive for parainfluenza. SE returned requiring transfer to the ICU for midazolam and pentobarbital infusions. […] They were seizure-free for two days after drips were weaned before seizures returned prompting vagus nerve stimulator placement and a prolonged 2-week course of IV pentobarbital titrated to EEG burst suppression. As pentobarbital was weaned off, convulsive seizures returned.
They were granted E-IND approval for a trial of IV to enteric GNX. GNX was administered using an IV bolus followed by infusion over 4 days (with boluses as needed for breakthrough seizures): on day 1 pentobarbital was discontinued; by day 3 clinical and electrographic seizures stopped.
One month after ganaxolone initiation, the patient was transferred to inpatient rehabilitation services and they were discharged home 1 month later. They were weaned off the ketogenic diet, anakinra, and felbamate with minimal breakthrough clinical seizures (only in setting of intercurrent illness or decreasing ASMs). […] Patient continues to be on ganaxolone and 4 other ASMs (valproic acid, brivaracetam, lorazepam, perampanel). See, FIGS. 1, 2, and 3A-3C.

[7] = system: patients with super refractory SE; details: Phase 3, randomized, double-blind, placebo-controlled; cited from earlier work

## O=C1Nc2ccc(Cl)cc2C(c2ccccc2Cl)=NC1O (stereo not drawn) [lorazepam]
[1]
  response of SRSE to treatment given before GNX: No response

## CC(=O)[C@H]1CC[C@H]2[C@@H]3CC[C@H]4C[C@](C)(O)CC[C@]4(C)[C@H]3CC[C@]12C [ganaxolone, 3α-hydroxy-3β-methyl-5α-pregnan-20-one]
Progesterone receptor
  activation of the progesterone receptor: does not activate the progesterone receptor directly or indirectly
[2]
  action on GABAA receptors in the CNS: positive allosteric modulator
[3]; IV bolus, infusion over 6 days
  day of GNX IV protocol on which midazolam was discontinued: 2 days
[3]; at 6 weeks, transfer from ICU to the floor
  clinical status: alert and was responsive with some vocalizations
[3]; by 4 weeks after admission
  clinical status: more responsive
[3]; with the assistance of phenobarbital loads and maintenance
  day by which ketamine was discontinued: ≤ 8 days
[4]
  prenatal and neonatal developmental toxicity: have not demonstrated toxicities
[1]; after IV GNX bolus 0.64 mg/kg
  time to improvement on EEG: ≤ 10 min
[1]; four weeks after discharge, on oral GNX, 20 seizures per day at baseline
  clinical seizures after hospitalization: no clinical seizures
[1]; in vivo, iv
  time of IV GNX until extubation: 48 h
SE
  suppression of SE: rapid and continued suppression of SE
CYP3A⅘; human, in vivo
  metabolizing enzyme: metabolized by CYP3A⅘
CYP3A⅘; subjects taking strong CYP inducers (carbamazepine and phenytoin)
  lowering in overall ganaxolone levels and exposure: ~45%
[5]; clinical trials, tapered off over 1 to 2 weeks
  withdrawal symptoms after cessation: no reports of withdrawal symptoms
[5]; completed placebo-controlled Phase 1, 2, and 3 studies
  subjects who developed elevated LFTs (>3x ULN AST and/or ALT): 0.32%
[5]; development program overall
  ECG intervals, vital signs, physical or neurological examinations: no clinically significant trends
[5]; ganaxolone and its metabolites
  excretion to breast milk: excreted to breast milk
[6]; human plasma, oral administration, Nohria and Giller 2007
  half-life: approximately 20 hours
[6]; in contrast to allopregnanolone
  oral bioavailability: orally bioavailable
[6]; in vivo
  Tmax: short
Solubility of ganaxolone; aqueous with cosolvent or surfactant or cyclodextrin, beta-sulfobutyl-cyclodextrin, 2-hydroxypropylbetacyclodextrin, read-out: concentration dissolved using water soluble beta cyclodextrins
  solubility: > 1000 µg/mL
Solubility of ganaxolone; water
  solubility in water: insoluble
Status epilepticus; IV bolus followed by infusion over 4 days
  day by which clinical and electrographic seizures stopped: ≤ 3 days
Status epilepticus; day 5 of protocol, transition from IV to enteric GNX
  video EEG finding (FIG. 3C): cessation of seizures
Status epilepticus; from Day 5
  seizure status after transition from IV to enteric GNX: has remained seizure-free
Status epilepticus; more than one year later
  durability of response: response to ganaxolone and seizure cessation were sustained

## CCCC(CCC)C(=O)O [valproic acid]
[1]; female, human, in vivo
  serum level: 106 µg/mL

## CCC1(C)CC(=O)NC1=O (stereo not drawn) [ethoxsuccimide]
[1]
  response of SRSE to treatment given before GNX: No response

## Cc1ncc2n1-c1ccc(Cl)cc1C(c1ccccc1F)=NC2 [midazolam]
[1]
  response of SRSE to treatment given before GNX: No response

## CN1C(=O)CN=C(c2ccccc2)c2cc(Cl)ccc21 [diazepam]
[1]
  response of SRSE to treatment given before GNX: No response

## N#Cc1ccccc1-c1cc(-c2ccccn2)cn(-c2ccccc2)c1=O [perampanel]
[1]
  response of SRSE to treatment given before GNX: No response

## CC(=O)[C@H]1CC[C@H]2[C@@H]3CC[C@H]4C[C@H](O)CC[C@]4(C)[C@H]3CC[C@]12C [brexanolone]
[7]
  efficacy over placebo in SRSE: failed to show efficacy over placebo
